Reference: patent US10966968B2 (Amarin Pharmaceuticals Ireland Limited, priority 2013, dated 2021)
Blank lines part the entries; values can stand above or below the molecule they belong to.

Tests used:
[1] = independent of dose; cited from earlier work
[2] = Phase 1 open-label crossover drug-drug interaction study: rosiglitazone plasma pharmacokinetics without and with ethyl eicosapentaenoate
Experimental: Eligibility assessments and clinical laboratory testing were performed within a 28-day screening period. All eligible subjects received the same treatment. […] On days 12-29, subjects received oral doses of 4 g icosapent ethyl (2 liquid-filled 1 g gelatin capsules) twice daily, with or following the morning and evening meals. All study drugs were taken with 240 mL water. Rosiglitazone was administered by study personnel at the research unit, and thus compliance calculations were not necessary. icosapent ethyl was either administered by study personnel during scheduled visits or self-administered by subjects while away from the study site. Compliance to icosapent ethyl (days 12-29) was evaluated by counting and reconciling unused capsules against subject diaries and was calculated as: (used capsules/total dosing days×4)×100.
Doses selected for study were based on established PK profiles of both agents.
Eligible subjects were healthy nonsmoking men and women between the ages of 19 and 55 years with a body mass index >18 and ≤35 kg/m^2 and in good health as determined by medical history and medical examination. Women who were pregnant, nursing, or planning a pregnancy were excluded; female subjects of childbearing potential were required to use an acceptable method of birth control. Subjects were prohibited from ingesting medications and supplements that contained EPA and/or docosahexaenoic acid (DHA), fish meals, foods fortified with EPA and/or DHA, lipid-medications and dietary supplements with known or potential lipid-altering effects including statins, niacin >200 mg/day, fibrates, ezetimibe, and bile acid sequestrants or medications or supplements that may influence the measurements of EPA concentrations in plasma until after the last PK sample collection.

[3] = Safety evaluation in the drug-drug interaction study (adverse events, laboratory, vital signs); assay type: in vivo, human; conditions: rosiglitazone 8 mg with ethyl eicosapentaenoate 4 g/day, healthy subjects
Source text: Safety evaluations consisted of monitoring adverse events (AEs), clinical laboratory measurements (chemistry, hematology, and urinalysis), vital signs (systolic and diastolic blood pressure, heart rate, respiratory rate and oral body temperature), and physical examination findings.

CYP2C8 = target: T1, CYP2C8 (Homo sapiens, UniProt P10632); assay: Effect of ethyl eicosapentaenoate on metabolism/exposure of rosiglitazone (CYP2C8 substrate) in the drug-drug interaction study; assay type: in vivo; conditions: at steady state, 4 g/day, healthy subjects
T1 construct: from tissue; host or cells: living healthy human subjects (in vivo; endogenous enzyme)
T1 sequence (P10632 1-490): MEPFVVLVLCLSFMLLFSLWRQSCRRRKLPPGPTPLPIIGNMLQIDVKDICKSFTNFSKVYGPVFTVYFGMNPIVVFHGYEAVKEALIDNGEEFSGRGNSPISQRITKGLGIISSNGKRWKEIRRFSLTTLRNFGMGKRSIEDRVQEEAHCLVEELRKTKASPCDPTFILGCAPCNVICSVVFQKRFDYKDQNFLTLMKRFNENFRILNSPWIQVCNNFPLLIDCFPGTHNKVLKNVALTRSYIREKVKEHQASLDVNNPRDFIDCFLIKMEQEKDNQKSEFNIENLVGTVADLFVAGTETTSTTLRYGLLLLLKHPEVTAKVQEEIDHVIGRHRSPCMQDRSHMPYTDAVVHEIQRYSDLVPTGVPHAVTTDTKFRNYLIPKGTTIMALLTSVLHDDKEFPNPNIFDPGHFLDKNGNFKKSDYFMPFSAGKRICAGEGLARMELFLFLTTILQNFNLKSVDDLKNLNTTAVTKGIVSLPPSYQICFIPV
Source text: Nonparametric statistics included median and data range (minimum-maximum).

[4] = both, human, plasma, oral, 8 mg

- Tmax ([2]; both, human, plasma, oral): 48 min
- half-life ([2]; both, human, plasma, oral): 246 min
- AUC(0-t) [2, 4]: 3150 ng·h/mL
- Tmax [2, 4]: 48 min
- half-life [2, 4]: 264 min
- Cmax ([2]; both, human, plasma, oral, 8 mg, Cmax, rosiglitazone 8 mg alone, mean (SD)): 672 ng/mL
- AUC(0-inf) ([2]; both, human, plasma, oral, 8 mg, LSGM AUC0-inf, rosiglitazone alone, least squares geometric mean from mixed models): 3150 ng·h/mL
- Cmax ([2]; both, human, plasma, oral, 8 mg, LSGM Cmax, rosiglitazone alone, least squares geometric mean from mixed models): 647 ng/mL
- AUC(0-inf) ([2]; both, human, plasma, oral, AUC0-inf, rosiglitazone 8 mg with EPA 4 g (day 29), healthy subjects, plasma, mean (SD)): 2920 ng·h/mL
- Cmax ([2]; both, human, plasma, oral, Cmax, rosiglitazone 8 mg with EPA 4 g, mean (SD)): 673 ng/mL
- AUC(0-inf) ([2]; both, human, plasma, oral, LSGM AUC0-inf, rosiglitazone + EPA, least squares geometric mean from mixed models): 2840 ng·h/mL
- Cmax ([2]; both, human, plasma, oral, LSGM Cmax, rosiglitazone + EPA, least squares geometric mean from mixed models): 650 ng/mL
- AUC(0-inf) ([2]; both, human, plasma, po, 8 mg, AUC0-inf, rosiglitazone 8 mg single oral dose alone (day 11), healthy subjects, plasma, mean (SD)): 3230 ng·h/mL
- Kel ([2]; rosiglitazone 8 mg alone, mean (SD)): 0.16 (0.02) 1/h
- Kel ([2]; rosiglitazone 8 mg with EPA 4 g, mean (SD)): 0.17 (0.03) 1/h
- difference in AUC0-inf and Cmax, alone compared to co-administration with ethyl eicosapentaenoate ([2]; rosiglitazone 8 mg, ethyl eicosapentaenoate 4 g/day): no significant difference
SMILES: CN(CCOc1ccc(CC2SC(=O)NC2=O)cc1)c1ccccn1 (centres unmarked) [Rosiglitazone, rosiglitazone]
- elimination half-life [1]: 3 to 4 h
- safety and tolerability of concomitant administration [3]: safe and well-tolerated
- serious adverse events [3]: No serious adverse events

- exposure changes of rosiglitazone when administered concomitantly (CYP2C8): no clinically relevant exposure changes
- inhibition of the metabolism of rosiglitazone (CYP2C8): does not inhibit
SMILES: CC/C=C\C/C=C\C/C=C\C/C=C\C/C=C\CCCC(=O)OCC [ethyl eicosapentaenoate, all-cis eicosa-5,8,11,14,17-pentaenoic acid ethyl ester]
- safety and tolerability of concomitant administration [3]: safe and well-tolerated
- serious adverse events [3]: No serious adverse events
